Test results published in patent US9273043B2, “TRPV1 antagonists including dihydroxy substituent and uses thereof” (Purdue Pharma L.P., priority 2011, dated 2016).
In brackets after ≈: the same amount, converted by molar mass. Read-outs that look alike come from different tables or passages of the source.

Assays:
human TRPV1 [1] = target: T1, human TRPV1 (Homo sapiens (Human), UniProt Q8NER1); assay: Capsaicin-based assay, Protocol 2, TRPV1/CHO cells (hCAP-CHO), Fluo-4 FLIPR; type: cell-based; conditions: 100 nM capsaicin, mean ± SEM
Outline: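 CHO cells stably transfected with human TRPV1 cDNA (G418-selected) were loaded with 3 μM Fluo-4 for 1 h, washed, then read on FLIPR with 15 s baseline before additions. Compound tested at final 100 μM to 1.5625 μM against capsaicin stimulation; calcium fluorescence time course curve-fitted.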

human TRPV1 [2] = target: T1, human TRPV1; assay: pH-based assay, Protocol 2, TRPV1/CHO cells (hpH-CHO), Fura-2 Ca2+ influx; type: cell-based; conditions: pH 5.0-5.1 (H2SO4), mean ± SEM
[3] = Aqueous solubility at pH 1.2 and pH 6.8; type: physicochemical; conditions: aqueous solution
[4] = pH 1.2, simulated gastric fluid, read-out: aqueous solubility at pH 1.2
[5] = pH 6.8, aqueous buffer, read-out: aqueous solubility at pH 6.8

T1 sequence (Q8NER1 whole entry, looked up): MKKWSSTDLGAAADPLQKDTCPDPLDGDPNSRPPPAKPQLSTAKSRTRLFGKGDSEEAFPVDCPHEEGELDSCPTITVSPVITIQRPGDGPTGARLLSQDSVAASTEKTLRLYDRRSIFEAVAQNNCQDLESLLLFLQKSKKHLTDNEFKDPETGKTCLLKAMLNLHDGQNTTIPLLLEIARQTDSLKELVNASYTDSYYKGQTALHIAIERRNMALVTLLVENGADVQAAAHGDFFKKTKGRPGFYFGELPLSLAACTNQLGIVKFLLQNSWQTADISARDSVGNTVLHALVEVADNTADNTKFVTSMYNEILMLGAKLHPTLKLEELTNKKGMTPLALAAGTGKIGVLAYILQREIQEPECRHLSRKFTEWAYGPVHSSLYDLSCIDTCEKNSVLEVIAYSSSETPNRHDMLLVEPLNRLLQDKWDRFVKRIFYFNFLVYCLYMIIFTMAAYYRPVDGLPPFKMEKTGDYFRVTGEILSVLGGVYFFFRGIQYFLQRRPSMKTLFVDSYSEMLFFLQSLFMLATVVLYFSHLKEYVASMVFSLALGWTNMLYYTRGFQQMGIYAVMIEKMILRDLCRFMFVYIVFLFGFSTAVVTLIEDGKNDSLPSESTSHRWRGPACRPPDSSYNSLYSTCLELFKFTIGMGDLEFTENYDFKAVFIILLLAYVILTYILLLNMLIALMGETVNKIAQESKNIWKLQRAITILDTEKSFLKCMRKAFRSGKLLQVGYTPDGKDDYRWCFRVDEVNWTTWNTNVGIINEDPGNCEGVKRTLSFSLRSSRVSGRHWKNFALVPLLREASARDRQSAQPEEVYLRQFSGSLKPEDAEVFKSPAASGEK

| IC50 (human TRPV1 [1]) | IC50 (human TRPV1 [2]) | solubility [3, 4] | solubility [3, 5] | Compound |
| --- | --- | --- | --- | --- |
| 42.8 ± 2 nM | 17.4 ± 1.2 nM | – | – | C[C@H](O)[C@@H](O)c1cnc(N2CCN(C(=O)Nc3nc4ccc(F)cc4s3)CC2)c(Cl)c1 [C4(r), 4-{3-Chloro-5-[(1S,2S)-1,2-dihydroxypropyl]pyridin-2-yl}-N-(6-fluorobenzo[d]thiazol-2-yl)piperazine-1-carboxamide] |
| 89 ± 34 nM | 32.8 ± 8.1 nM | – | – | Cc1cc2nc(NC(=O)N3CCN(c4ncc([C@H](O)[C@H](C)O)cc4F)CC3)sc2cc1C [C170(r), 4-(5-((1S,2S)-1,2-dihydroxypropyl)-3-fluoropyridin-2-yl)-N-(5,6-dimethylbenzo[d]thiazol-2-yl)piperazine-1-carboxamide] |
| 177 ± 69 nM | 98 ± 27 nM | > 50 µM | > 50 µM | C[C@H]1CN(c2ncc([C@H](O)CO)cc2F)CCN1C(=O)Nc1nc2ccccc2s1 [A122(a), (S)—N-(benzo[d]thiazol-2-yl)-4-(5-((S)-1,2-dihydroxyethyl)-3-fluoropyridin-2-yl)-2-methylpiperazine-1-carboxamide] |
| 99 ± 24 nM | 69 ± 3 nM | > 50 µM | 3 µM (≈ 1.35 µg/mL) | C[C@H](O)[C@@H](O)c1cnc(N2CCN(C(=O)Nc3nc4ccc(F)cc4s3)CC2)c(F)c1 [C125(r), 4-(5-((1S,2S)-1,2-dihydroxypropyl)-3-fluoropyridin-2-yl)-N-(6-fluorobenzo[d]thiazol-2-yl)piperazine-1-carboxamide] |
| 112 ± 32 nM | 81 ± 13 nM | – | – | C[C@@H]1CN(C(=O)Nc2nc3ccc(F)cc3s2)CCN1c1ncc([C@H](O)CO)cc1F [A125(b), (R)-4-{5-[(S)-1,2-dihydroxyethyl]-3-fluoropyridin-2-yl}-N-(6-fluorobenzo[d]thiazol-2-yl)-3-methylpiperazine-1-carboxamide] |
| 40.2 ± 11 nM | 12.2 ± 5.9 nM | > 50 µM | 14 µM (≈ 6.24 µg/mL) | Cc1ccc2nc(NC(=O)N3CCN(c4ncc([C@H](O)CO)cc4F)C[C@@H]3C)sc2c1 [A126(a), (S)-4-(5-((S)-1,2-dihydroxyethyl)-3-fluoropyridin-2-yl)-2-methyl-N-(6-methylbenzo[d]thiazol-2-yl)piperazine-1-carboxamide] |
| 62.4 ± 13.8 nM | 17.1 nM | > 50 µM | 5 µM (≈ 2.34 µg/mL) | C[C@H]1CN(c2ncc([C@H](O)CO)cc2F)CCN1C(=O)Nc1nc2cc(F)c(F)cc2s1 [A158(a), (S)—N-(5,6-difluorobenzo[d]thiazol-2-yl)-4-(5-((S)-1,2-dihydroxyethyl)-3-fluoropyridin-2-yl)-2-methylpiperazine-1-carboxamide] |
| 71 ± 20 nM | 67 ± 12 nM | > 50 µM | 4 µM (≈ 1.78 µg/mL) | Cc1ccc2nc(NC(=O)N3CCN(c4ncc([C@H](O)[C@H](C)O)cc4F)CC3)sc2c1 [C126(r), 4-[5-((1S,2S)-1,2-Dihydroxy-propyl)-3-fluoro-pyridin-2-yl]piperazine-1-carboxylic acid (6-methyl-benzothiazol-2-yl)-amide] |
| 68 ± 17 nM | 40.8 ± 3.2 nM | – | – | C[C@@H]1CN(C(=O)Nc2nc3cc(F)c(F)cc3s2)CCN1c1ncc([C@H](O)CO)cc1F [AE, (R)—N-(5,6-difluorobenzo[d]thiazol-2-yl)-4-{5-[(S)-1,2-dihydroxyethyl]-3-fluoropyridin-2-yl}-3-methylpiperazine-1-carboxamide] |
| 49 ± 10 nM | 136 ± 20 nM | – | – | C[C@H](O)[C@@H](O)c1cnc(N2CCN(C(=O)Nc3nc4cc(F)c(F)cc4s3)C[C@H]2C)c(F)c1 [B158(j), (R)—N-(5,6-difluorobenzo[d]thiazol-2-yl)-4-{5-[(1S,2S)-1,2-dihydroxypropyl]-3-fluoropyridin-2-yl}-3-methylpiperazine-1-carboxamide] |
